Where two headings read alike, the source gives them in different places. Marks after values point to notes of the source that are not given here.
How the values were obtained:
[1] = test system: secreted phospholipase B (PLB activity); assay: Radiometric assay, secreted PLB activity; format: biochemical, Cryptococcus neoformans H99; conditions: for PLB, percentage inhibition of activity: Secretory Cryptococcal H99 Phospholipase
Experimental: (§1) Fungal isolates and media. […] Isolate H99 was kindly supplied by Dr. Gary Cox (Duke University Medical Center, Durham, N.C., USA), and subcultured onto Sabouraud dextrose agar (SDA) at 30° C.
Preparation of supernatants containing secreted phospholipase activities. Isolate H99 was grown to confluence on SDA in 16 cm diameter Petri dishes for 72 h at 30° C. in air. Cells scraped from 10-20 dishes were washed sequentially with isotonic saline and imidazole buffer (10 mM imidazole, 2 mM CaCl2, 2 mM Mg Cl2, 56 mM D-Glucose, made up in isotonic saline, pH 5.5), resuspended in a volume of this buffer of about 10% of the cell volume, and incubated for 24 h at 37° C. The cell-free supernatant was separated by centrifugation as previously described and stored at −70° C.
(§2) Radiometric assay method for phospholipases. Enzyme activities were measured as described previously in a final volume of 125 μL at 37° C. For the determination of secreted PLB activity, carrier dipalmitoyl phosphatidylcholine (DPPC, final concentration 800 μM) and 1,2-di[1-^14C] palmitoyl phosphatidylcholine (20,000 dpm) were dried under nitrogen and suspended in 125 mM imidazole acetate buffer (assay buffer, pH 4.0) by sonication using a Branson 450 sonifier. The reaction time was 22 min, using 1 μg total protein and PLB activity was determined by the rate of decrease of the radiolabelled PC substrate, with appearance of the label in free fatty acid. This assay also simultaneously allows for the determination of phospholipase A, C and D activities. These activities were measured by the appearance of radiolabel from PC in Lyso PC, diacylglycerol and phosphatidic acid, respectively.
(§3) All reactions were terminated by adding 0.5 mL of chloroform:methanol (2:1 v/v). The reaction products were extracted by the method as disclosed in Bligh, E. C. and W. J. Dyer. 1959 ‘A rapid method of total lipid extraction and purification.’ Can. J. Biochem. Physiol. 37:911-917, separated by TLC and quantified as previously described. In the case of PLC activity, the TLC plates were developed in petroleum ether (BP 60-80° C.): diethyl ether: acetic acid (90:15:1, v/v/v) instead of chloroform:methanol:water (65:25:4, v/v/v).
(§4) Preparation of inhibitors and use in assays. The following compounds were tested (for structures, see FIG. 2): compound 1, 1,12-bis(tributylphosphonium)dodecane dibromide (Fluka AG, Buchs, Switzerland); compound 2, 1,10-bis(tributylammonium)-decane dibromide; compound 3, 1,12-bis(tributylammonium)do-decane dibromide (both synthesised in-house); compound 4, 1,10-bis(trimethylammonium)decane dibromide [“decamethonium”] (Sigma, St. Louis Mo., USA). All compounds were prepared as stock solutions of 700 μM in assay buffer containing 5 mM EDTA, which was then diluted serially with buffer to obtain solutions of 70, 7, 0.7 and 0.07 μM. In each assay, 45 μL of these solutions was used, and the final volume of 125 μL was made up of substrate, enzyme and buffer. The radiometric assay was carried out as above. Inhibition was calculated as the percent of substrates (DPPC or Lyso-PC) remaining in the case of PLB and LPL activities, or of DPPC produced, in the case of the LPTA activity. The amounts converted, or produced, in the inhibitor-free control were normalised to 100%, and the inhibition calculated against it. All assays were done in triplicate.
Under these conditions only PLB, LPL and LPTA activities (both secreted and cell-associated) were measured. Initially, compounds deemed to be potential inhibitors were assayed at 25 and 250 μM. Those showing some inhibition were then also assayed at 2.5 and 0.25 μM.

[2] = test system: Cryptococcus neoformans ATCC 90112; assay: Antifungal susceptibility testing, microdilution MIC; format: cell-based; conditions: Cryptococcus neoformans, ATCC90112
Method in brief: (§5)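 Standard microdilution method, run in duplicate, using serial dilutions of cationic compounds.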

[3] = test system: Candida albicans ATCC 10231; assay: as above; format: cell-based; conditions: Candida albicans, ATCC10231
Method in brief: as §5

[4] = target: T1, Porcine pancreatic phospholipase A2 (Sus scrofa, UniProt P00592); assay: Pancreatic phospholipase assay; format: biochemical; conditions: read-out: ppPLA2, percentage inhibition of activity
T1 construct: purchased Sigma, St. Louis MO, USA
Experimental: Pancreatic phospholipase assay. Porcine pancreatic phospholipase A2 suspension in 3.2M ammonium sulfate (2.9 mg protein/mL, Sigma St.Louis Mo., USA) was used. One part of well mixed enzyme suspension was added to 4 parts of buffer (10 mM Tris/HCl, pH 8.2; 10 mM CaCl2. Activity and inhibition by test compounds was then measured by the radiometric method described in Example 2 for fungal PLB activity. However, 25 μL enzyme solution was used, and the reaction time was 1 hour. These conditions result in ˜60% substrate conversion in the inhibitor-free control.

[5] = test system: cytosolic phospholipase B (LPL/LPTA activities); assay: Radiometric assay, cytosolic LPL/LPTA activities; format: biochemical, Cryptococcus neoformans H99; conditions: modifier 10 mM (Triton X-100 0.1% w/v)
Experimental: as §1
(§6) Cellular disruption to prepare membrane and cytosolic fractions. The cell pellet from the preparation of the supernatant, above, was also frozen at −70° C. After washing twice with imidazole buffer, it was disrupted in the presence of a protease inhibitor cocktail (P 8215 for fungal and yeast cells; 4-(2-aminoethyl)benzenesulfonyl fluoride hydrochloride, 100 mM, 1,10-phenanthroline, 500 mM, pepstatin A, 2.2 mM, E-64, 1.4 mM; Sigma) in a MiniBeadbeater-8 Cell Disrupter (MBB-8; Daintree Scientific, Tasmania, Australia) for three cycles of 1 min, alternating with a 1 min cooling period on ice. The homogenate was centrifuged at 14,000 g for 15 min to obtain the membrane (pellet) and the cytosolic (supernatant) fractions.
(§7) Secreted LPL and LPTA activities were measured simultaneously in a reaction mixture containing 1-[^14C]palmitoyl lyso-PC (25,000 dpm) and carrier lyso-PC (final concentration 200 μM) in assay buffer. The reaction time was […] with 1 μg of total protein and LPL activity was measured by the rate of loss of 1-[^14C]palmitoyl lyso-PC with release of radiolabelled fatty acids. LPTA activity was estimated from the rate of formation of radiolabelled PC.
as §3
(§8) All experiments were carried out in duplicate or triplicate. The effects of pH on the various phospholipase activities were measured using 50 mM final concentration of imidazole-acetate buffer (pH range 3-5), MES buffer (pH range 6-8) and glycine buffer (pH 9-10). Controls for non-enzymic breakdown of substrates were included at all pH values. Cations, Triton X-100 and metal chelators were made up as stock solutions in water and diluted to the final concentration in the appropriate assay buffer.
as §4
(§9) Under these conditions only PLB, LPL and LPTA activities (both secreted and cell-associated) were measured. Initially, compounds deemed to be potential inhibitors were assayed at 25 and 250 μM.

[6] = test system: cytosolic phospholipase B (PLB activity); assay: Radiometric assay, cytosolic PLB activity; format: biochemical, Cryptococcus neoformans H99; conditions: modifier 10 mM (Triton X-100 0.1% w/v)
Experimental: as §1, §6, §2, §3, §8
(§10) Preparation of inhibitors and use in assays. The following compounds were tested (for structures, see FIG. 2): compound 1, 1,12-bis(tributylphosphonium)dodecane dibromide (Fluka AG, Buchs, Switzerland); compound 2, 1,10-bis(tributylammonium)-decane dibromide; compound 3, 1,12-bis(tributylammonium)do-decane dibromide (both synthesised in-house); compound 4, 1,10-bis(trimethylammonium)decane dibromide [“decamethonium”] (Sigma, St. Louis Mo., USA). All compounds were prepared as stock solutions of 700 μM in assay buffer containing 5 mM EDTA, which was then diluted serially with buffer to obtain solutions of 70, 7, 0.7 and 0.07 μM. In each assay, 45 μL of these solutions was used, and the final volume of 125 μL was made up of substrate, enzyme and buffer. The radiometric assay was carried out as above.

[7] = test system: membrane-associated phospholipase B (PLB activity); assay: Radiometric assay, membrane-associated PLB activity; format: biochemical, Cryptococcus neoformans H99; conditions: modifier 10 mM (Triton X-100 0.1% w/v)
Experimental: as §1, §6, §2, §3, §8, §10

[8] = test system: membrane-associated phospholipase B (LPL/LPTA activities); assay: Radiometric assay, membrane-associated LPL/LPTA activities; format: biochemical, Cryptococcus neoformans H99; conditions: modifier 10 mM (Triton X-100 0.1% w/v)
Experimental: as §1, §6, §7, §3, §8, §4, §9

T1 sequence (P00592 23-146): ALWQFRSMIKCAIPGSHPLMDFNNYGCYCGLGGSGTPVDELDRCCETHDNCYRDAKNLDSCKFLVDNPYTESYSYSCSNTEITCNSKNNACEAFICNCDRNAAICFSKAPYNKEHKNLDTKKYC

With `CCCC[N+](CCCC)(CCCC)CCCCCCCCCC[N+](CCCC)(CCCC)CCCC` [Compound 2, 1,10-bis(tributylammonium)-decane dibromide] the “PLB assay (% inhibition)” value ([1]; 0.25 μM) was 0%, the “PLB, percentage inhibition of activity” value ([1]; 0.25 μM) was 0% and the “PLB assay (% inhibition)” value ([1]; 2.5 μM) was 30%. For the same molecule, the “PLB, percentage inhibition of activity” value ([1]; 2.5 μM) was 30%, the “PLB assay (% inhibition)” value ([1]; 25 μM) was 80% and the “PLB, percentage inhibition of activity” value ([1]; 25 μM) was 80%. The “PLB assay (% inhibition)” value ([1]; 250 μM) was 90%, the “PLB, percentage inhibition of activity” value ([1]; 250 μM) was 90% and the MIC ([2]; Table 6, no visible growth after 72 h at 35° C., read-out: MIC C. neof. ATCC 90112) was 11 µM. The MIC ([2]; Table 7, read-out: MIC (μM) Crypto. (ATCC 90112)) was 11 µM, the MIC ([3]; Table 6, no visible growth after 48 h at 35° C., read-out: MIC C. albicans ATCC 10231) was 88 µM and the MIC ([3]; Table 7, read-out: MIC (μM) C. alb. (10231)) was 88 µM. It also gave an inhibition at 0.25 µM ([4]; 0.25 μM) of 0%, an inhibition at 2.5 µM ([4]; 2.5 μM) of 0% and an inhibition at 25 µM ([4]; 25 μM) of 25%. The inhibition at 250 µM ([4]; 250 μM) was 65%.

`[Mg+2]` [Magnesium] was tested, and the “Cytosolic LPL activity, percentage of the control” value ([5]; pH 4.0) was 73%, the “Cytosolic LPTA activity, percentage of the control” value ([5]; pH 4.0) was 70% and the “Cytosolic LPL activity, percentage of the control” value ([5]; pH 7.0) was 96%. For the same molecule, the “Cytosolic LPTA activity, percentage of the control” value ([5]; pH 7.0) was 85%, the “Cytosolic PLB activity, percentage of the control” value ([6]; pH 4.0) was 100% and the “Cytosolic PLB activity, percentage of the control” value ([6]; pH 7.0) was 477* %. The “Membrane-associated PLB activity, percentage of the control” value ([7]; pH 4.0) was 79%, the “Membrane-associated PLB activity, percentage of the control” value ([7]; pH 7.0) was 467* % and the “Membrane-associated LPL activity, percentage of the control” value ([8]; pH 4.0) was 97%. For the same molecule, the “Membrane-associated LPTA activity, percentage of the control” value ([8]; pH 4.0) was 91%, the “Membrane-associated LPL activity, percentage of the control” value ([8]; pH 7.0) was 145* % and the “Membrane-associated LPTA activity, percentage of the control” value ([8]; pH 7.0) was 123* %.

Source: patent US7947854B2, “Bis-cationic compounds and use thereof” (The University of Sydney, priority 2003, dated 2011)
